Source: patent EP0244088A2, “1-Phenyl-3-benzazepine compounds and medicaments containing these compounds for treating gastrointestinal motility disorders” (SMITHKLINE BECKMAN CORPORATION, priority 1986, dated 1987)

Each molecule was assayed on lower esophageal sphincter (LES) (assay: Determination of LES pressure in the anesthetized dog). Conditions: Canis lupus familiaris, iv, Effective Dose 20 for increase in resting LES pressure, mean of individual ED20 values (N>=3), read-out: ED20 mcg/kg, i.v.
Assay type: in vivo, dogs
Protocol: Method for Determination of LES Pressure in the Anesthetized Dog
Mongrel or beagle dogs, male and female, are anesthetized using sodium pentobarbital (35.0 mg/kg., I.V.). Sodium pentobarbital is then continuously infused (approximatemated 6.0 mg/kg/hr) to maintain deep anesthesia. Blood pressure is monitored via a catheter surgically implanted into the femoral artery and attached to a Gould's P231D transducer. A catheter is also implanted into the femoral vein to administer test drugs. Respiration is maintained by an endotracheal tube attached to a respirator. A continuously perfused manometric catheter system including a Dent sleeve to measure sphincter pressure (Dent, Gastroenterology 7l: 263-267, l976) is inserted into the esophagus and positioned so that intraluminal pressure is recorded from the body of the esophagus, the lower esophageal sphincter (LES) and the fundus of the stomach. The Dent sleeve catheter is perfused at a rate of 0.5 ml of water per minute for each lumen of the catheter by using an Arndorfer Hydraulic Capillary Infusion System. A cannula is implanted into the gastric antrum to allow drainage of the perfusate solution and prevent intestinal distension. Continuous tracings of esophageal, LES and fundus pressure are monitored on a Grass Polygraph (Model 7D). Correct positioning of the Dent sleeve is verified by noting a high pressure zone at the LES and by administration of an intravenous dose of 5-HT (usually l0-l5 mcg/kg) which contracts the LES while having little or no recordable effect on either the body of the esophagus or the fundus. After verification of placement of the sleeve, the animal is allowed to stabilize for approximately 30 minutes.
Compounds are administered intravenously, intraduodenally or intragastrically. In most cases, succeeding doses of the same or different compounds are given only after the LES pressure has returned to approximate predosing baseline values. In all cases, the magnitude of change in LES pressure is determined from the baseline pressure immediately prior to each treatment to the maximum pressure during treatment. Since the compounds used usually produce an immediate effect on LES pressure, no pretreatment time prior to measurement is necessary during this testing.
Direct assay techniques are used to estimate an Effective Dose 20 (ED₂₀) for the test compound in individual animals. The mean ED₂₀ and 95% confidence limits are determined using the individual ED₂₀ values from a group of animals (N=≧3) that received the same treatment.

Row | SMILES | ED20 [mg/kg]
1 | Oc1cc(Cl)c2c(c1)C(c1ccccc1)CNCC2 (stereo not drawn) [compound 1, 6-Chloro-8-hydroxy-l-phenyl-2,3,4,5-tetrahydro-lH-3-benzazepine] | 0.445
2 | CS(=O)(=O)c1cc2c(cc1O)CCNCC2c1ccccc1 (stereo not drawn) [compound 2, 7-Hydroxy-8-methylsulfonyl-l-phenyl-2,3,4,5-tetrahydro-lH-3-benzazepine] | 0.317
3 | CS(=O)(=O)c1cc2c(cc1O)C(c1ccccc1)CNCC2 (stereo not drawn) [compound 3, 8-Hydroxy-7-methylsulfonyl-l-phenyl-2,3,4,5-tetrahydro-lH-3-benzazepine] | 0.05
4 | Oc1cc2c(cc1Br)CCNCC2c1ccccc1 (stereo not drawn) [compound 4, 7-Bromo-8-hydroxy-l-phenyl-2,3,4,5-tetrahydro-lH-3-benzazepine] | 0.016
5 | Cc1cc2c(cc1O)C(c1ccccc1)CNCC2 (stereo not drawn) [compound 5, 8-Hydroxy-7-methyl-l-phenyl-2,3,4,5-tetrahydro-lH-3-benzazepine] | 0.026
6 | CSc1cc2c(cc1O)C(c1ccccc1)CNCC2 (stereo not drawn) [compound 6, 8-hydroxy-7-methylthio-l-phenyl-2,3,4,5-tetrahydro-lH-3-benzazepine] | 0.017
7 | Oc1cc2c(cc1C(F)(F)F)CCNCC2c1ccccc1 (stereo not drawn) [compound 7, 8-Hydroxy-l-phenyl-7-trifluoromethyl-2,3,4,5-tetrahydro-lH-3-benzazepine] | 0.02
8 | COc1cc2c(cc1Br)CCN(C)CC2c1ccccc1 (stereo not drawn) [compound 8, 7-Bromo-8-methoxy-3-methyl-l-phenyl-2,3,4,5-tetrahydro-lH-3-benzazepine] | 0.079
9 | CN1CCc2cc(Cl)c(Cl)cc2C(c2ccccc2)C1 (stereo not shown) [compound 9] | 0.623
10 | Oc1cc2c(cc1O)C(c1ccccc1)CNCC2 (stereo not drawn) [compound 10, 7,8-dihydroxy-l-phenyl-2,3,4,5-tetrahydro-lH-3-benzazepine] | 0.735
11 | Cc1cc2c(cc1O)C(c1ccc(O)cc1)CNCC2 (stereo not drawn) [compound 11, 8-Hydroxy-l-(4-hydroxyphenyl)-7-methyl-2,3,4,5-tetrahydro-lH-3-benzazepine] | 0.044
12 | COCc1cc2c(cc1O)C(c1ccccc1)CNCC2 (stereo not drawn) [compound 13, 8-hydroxy-7-methoxymethyl-l-phenyl-2,3,4,5-tetrahydro-lH-3-benzazepine] | < 0.05
13 | OCc1cc2c(cc1O)C(c1ccccc1)CNCC2 (stereo not drawn) [compound 14, 8-hydroxy-7-hydroxymethyl-l-phenyl-2,3,4,5-tetrahydro-lH-3-benzazepine] | 0.1
14 | CS(=O)(=O)Nc1cc2c(cc1O)CCNCC2c1ccccc1 (stereo not drawn) [compound 15, 7-hydroxy-8-methanesulfonamido-l-phenyl-2,3,4,5-tetrahydro-lH-3-benzazepine] | 0.5
15 | CC(=O)Nc1cc2c(cc1O)C(c1ccccc1)CNCC2 (stereo not drawn) [compound 16, 7-Acetamido-8-hydroxy-l-phenyl-2,3,4,5-tetrahydro-lH-3-benzazepine] | < 2

Same assay, conditions: at 250 (mcg/kg per column head), i.g.

Row | SMILES | change in LES pressure (baseline to maximum during treatment)
16 | COc1cc2c(cc1S(C)(=O)=O)CCNCC2c1ccccc1 (stereo not drawn) [compound 12, 8-Methoxy-7-methylsulfonyl-l-phenyl-2,3,4,5-tetrahydro-lH-3-benzazepine] | 15 mm Hg at 250 (i.g.)
